Data on eight compounds can be found in PMC3426442 (Bioorganic & medicinal chemistry letters, 2012).

Molecules are shown by their SMILES.

One data set relates to NL4-3 V370A. The following applies: V370A versus NL4-3, single cycle infection assay.
For data set [1] the following is noted: in vitro; compared to A43D (A43D compared to bevirimat).
Another data set can be described thus: in vitro. The following applies: human, microsomes.
For data set [2] the following is noted: ref not given; cited from earlier work.

Take `Cc1cn([C@H]2C[C@H](N=[N+]=[N-])[C@@H](CO)O2)c(=O)[nH]c1=O` [AZT, 3′-azido-3′-deoxythymidine]: the “times less potent against the resistant variant” value in the data set on NL4-3 V370A is 2 times. For orientation: microsomal CLint means a measure of how fast metabolising enzymes remove a compound, apart from limits set by blood flow. A lower microsomal CLint goes with slow turnover. Regarding `C=C(C)[C@@H]1CC[C@]2(C(=O)NCCCCCCCNC(C)=O)CC[C@]3(C)[C@H](CC[C@@H]4[C@@]5(C)CC[C@H](O)C(C)(C)[C@@H]5CC[C@]43C)[C@@H]12` [Compound 1], the “microsomal / metabolic stability in words” value in data set [1] is listed as “poor”. In the data set “in vitro”, this compound registered a microsomal CLint of 272 µL/min/mg. For `C=C(C)[C@@H]1CC[C@]2(C(=O)NCCCCCCCNC(=O)[C@H](CCC(N)=O)NC(=O)OC(C)(C)C)CC[C@]3(C)[C@H](CC[C@@H]4[C@@]5(C)CC[C@H](O)C(C)(C)[C@@H]5CC[C@]43C)[C@@H]12` [Compound 2], the microsomal CLint in “in vitro” was found to be 366 µL/min/mg. For `C=C(C)[C@@H]1CC[C@]2(C(=O)NCCCCCCCCC(=O)N[C@@H](CCC(N)=O)C(=O)OC)CC[C@]3(C)[C@H](CC[C@@H]4[C@@]5(C)CC[C@H](O)C(C)(C)[C@@H]5CC[C@]43C)[C@@H]12` [Compound 13], the “microsomal / metabolic stability in words” value in data set [1] is recorded as “improved metabolic stability”. For the same compound, the microsomal CLint in “in vitro” amounted to 230 µL/min/mg. Taken in the same sequence, the figures for `C=C(C)[C@@H]1CC[C@]2(C(=O)NCCCCCCCCC(=O)N[C@@H](CCC(N)=O)C(=O)OCc3ccccc3)CC[C@]3(C)[C@H](CC[C@@H]4[C@@]5(C)CC[C@H](O)C(C)(C)[C@@H]5CC[C@]43C)[C@@H]12` [Compound 15] were “improved metabolic stability” and 169 µL/min/mg. For the compound `COC(=O)[C@H](CCC(N)=O)NC(=O)CCCCCCCCNC(=O)[C@]12CC[C@@H](C(C)C)[C@@H]1[C@H]1CC[C@@H]3[C@@]4(C)CC[C@H](O)C(C)(C)[C@@H]4CC[C@@]3(C)[C@]1(C)CC2` [Compound 38], the “microsomal / metabolic stability in words” value in data set [1] is “improved metabolic stability”. Moreover, the microsomal CLint in the data set “in vitro” was determined as 219 µL/min/mg. For `CC(C)[C@@H]1CC[C@]2(C(=O)NCCCCCCCCC(=O)N[C@@H](CCC(N)=O)C(=O)O)CC[C@]3(C)[C@H](CC[C@@H]4[C@@]5(C)CC[C@H](O)C(C)(C)[C@@H]5CC[C@]43C)[C@@H]12` [Compound 39], the microsomal CLint in “in vitro” turned out to be 280 µL/min/mg. In the case of `CC(C)(C)c1ccc(C(O)CCCN2CCC(C(O)(c3ccccc3)c3ccccc3)CC2)cc1` (stereo not drawn) [Terfenadine], the half-life in vivo result in data set [2] is “around 3.5 h”.
